Literature values, collected in patent publication US20090011059A1, “Ginger Extract For Inhibiting Human Drug Transporters” (priority 2005, published 2009).

Legend:
[1] = in vivo

Row | oral availability [%] | increase of the plasma exposure of cyclosporin A [1] | Compound
1 | 42 | – | CC[C@@]1(O)C(=O)OCc2c1cc1n(c2=O)Cc2cc3c(CN(C)C)c(O)ccc3nc2-1 [Topotecan]
2 | – | roughly two-fold | vitamin E

More lines, now with the values behind:

Row | Compound | oral availability [%] | increase of the plasma exposure of cyclosporin A [1]
3 | CC(=O)O[C@@]12CO[C@@H]1C[C@H](O)[C@@]1(C)C(=O)[C@H](O)C3=C(C)[C@@H](OC(=O)[C@H](O)[C@@H](NC(=O)OC(C)(C)C)c4ccccc4)C[C@@](O)([C@@H](OC(=O)c4ccccc4)[C@H]21)C3(C)C [Docetaxel] | 8 | –
4 | CC[C@H](C)C(=O)O[C@H]1C[C@@H](C)C=C2C=C[C@H](C)[C@H](CC[C@@H]3C[C@@H](O)CC(=O)O3)[C@H]21 [Lovastatin] | 4 | –
5 | CO[C@H]1C[C@@H]2CC[C@@H](C)[C@@](O)(O2)C(=O)C(=O)N2CCCC[C@H]2C(=O)O[C@H]([C@H](C)C[C@@H]2CC[C@@H](O)[C@H](OC)C2)CC(=O)[C@H](C)/C=C(\C)[C@@H](O)[C@@H](OC)C(=O)[C@H](C)C[C@H](C)/C=C/C=C/C=C/1C [Sirolimus] | 15 | –
6 | C=CC[C@@H]1/C=C(\C)C[C@H](C)C[C@H](OC)[C@H]2O[C@@](O)(C(=O)C(=O)N3CCCC[C@H]3C(=O)O[C@H](/C(C)=C/[C@@H]3CC[C@@H](O)[C@H](OC)C3)[C@H](C)[C@@H](O)CC1=O)[C@H](C)C[C@@H]2OC [Tacrolimus] | 16 | –
